This note sets out measurements from the OligoGym collection.

Oligonucleotides are given in HELM: sugar(base)linkage, 5' to 3'; d 2'-deoxyribose, r ribose, m 2'-O-methylribose, p phosphate. ss, as = sense and antisense strand

This data set addresses Mmp7 (rat). As to the kind of experiment: reporter assay of Huesken 2005. To be noted: siRNA.
Further: test concentration or dose not given here.

In the case of “RNA1{r(G)p.r(G)p.r(G)p.r(A)p.r(G)p.r(A)p.r(U)p.r(C)p.r(A)p.r(C)p.r(G)p.r(G)p.r(A)p.r(G)p.r(A)p.r(C)p.r(A)p.r(A)p.r(C)p.d(T)p.d(T)}|RNA2{r(G)p.r(U)p.r(U)p.r(G)p.r(U)p.r(C)p.r(U)p.r(C)p.r(C)p.r(G)p.r(U)p.r(G)p.r(A)p.r(U)p.r(C)p.r(U)p.r(C)p.r(C)p.r(C)p.d(C)p.d(T)}$$$RNA1{StrandType:ss}|RNA2{StrandType:as}$”, the normalised inhibition (eCFP-eYFP dual reporter) was determined as 94.2%.

For “RNA1{r(G)p.r(C)p.r(C)p.r(U)p.r(C)p.r(G)p.r(G)p.r(C)p.r(G)p.r(G)p.r(A)p.r(G)p.r(A)p.r(U)p.r(G)p.r(C)p.r(U)p.r(C)p.r(A)p.d(T)p.d(T)}|RNA2{r(U)p.r(G)p.r(A)p.r(G)p.r(C)p.r(A)p.r(U)p.r(C)p.r(U)p.r(C)p.r(C)p.r(G)p.r(C)p.r(C)p.r(G)p.r(A)p.r(G)p.r(G)p.r(C)p.d(C)p.d(T)}$$$RNA1{StrandType:ss}|RNA2{StrandType:as}$”, the normalised inhibition (eCFP-eYFP dual reporter) was 90.2%.

Turning to “RNA1{r(A)p.r(U)p.r(G)p.r(A)p.r(G)p.r(U)p.r(A)p.r(C)p.r(U)p.r(G)p.r(G)p.r(A)p.r(C)p.r(G)p.r(G)p.r(A)p.r(U)p.r(G)p.r(G)p.d(T)p.d(T)}|RNA2{r(C)p.r(C)p.r(A)p.r(U)p.r(C)p.r(C)p.r(G)p.r(U)p.r(C)p.r(C)p.r(A)p.r(G)p.r(U)p.r(A)p.r(C)p.r(U)p.r(C)p.r(A)p.r(U)p.d(C)p.d(C)}$$$RNA1{StrandType:ss}|RNA2{StrandType:as}$”, the normalised inhibition (eCFP-eYFP dual reporter) was 41.9%.

Consider “RNA1{r(A)p.r(G)p.r(G)p.r(G)p.r(G)p.r(A)p.r(G)p.r(A)p.r(U)p.r(C)p.r(A)p.r(C)p.r(G)p.r(G)p.r(A)p.r(G)p.r(A)p.r(C)p.r(A)p.d(T)p.d(T)}|RNA2{r(U)p.r(G)p.r(U)p.r(C)p.r(U)p.r(C)p.r(C)p.r(G)p.r(U)p.r(G)p.r(A)p.r(U)p.r(C)p.r(U)p.r(C)p.r(C)p.r(C)p.r(C)p.r(U)p.d(T)p.d(G)}$$$RNA1{StrandType:ss}|RNA2{StrandType:as}$”, for which the normalised inhibition (eCFP-eYFP dual reporter) amounted to 102%.

On to “RNA1{r(G)p.r(G)p.r(A)p.r(C)p.r(A)p.r(A)p.r(A)p.r(C)p.r(U)p.r(G)p.r(A)p.r(G)p.r(G)p.r(G)p.r(A)p.r(A)p.r(A)p.r(U)p.r(G)p.d(T)p.d(T)}|RNA2{r(C)p.r(A)p.r(U)p.r(U)p.r(U)p.r(C)p.r(C)p.r(C)p.r(U)p.r(C)p.r(A)p.r(G)p.r(U)p.r(U)p.r(U)p.r(G)p.r(U)p.r(C)p.r(C)p.d(A)p.d(C)}$$$RNA1{StrandType:ss}|RNA2{StrandType:as}$”, for which the normalised inhibition (eCFP-eYFP dual reporter) came to 83%.

With “RNA1{r(A)p.r(G)p.r(U)p.r(A)p.r(C)p.r(U)p.r(G)p.r(G)p.r(A)p.r(C)p.r(G)p.r(G)p.r(A)p.r(U)p.r(G)p.r(G)p.r(U)p.r(G)p.r(A)p.d(T)p.d(T)}|RNA2{r(U)p.r(C)p.r(A)p.r(C)p.r(C)p.r(A)p.r(U)p.r(C)p.r(C)p.r(G)p.r(U)p.r(C)p.r(C)p.r(A)p.r(G)p.r(U)p.r(A)p.r(C)p.r(U)p.d(C)p.d(A)}$$$RNA1{StrandType:ss}|RNA2{StrandType:as}$”, the normalised inhibition (eCFP-eYFP dual reporter) was 90.5%.

Regarding “RNA1{r(A)p.r(G)p.r(U)p.r(G)p.r(C)p.r(C)p.r(A)p.r(G)p.r(A)p.r(U)p.r(G)p.r(U)p.r(U)p.r(G)p.r(C)p.r(A)p.r(G)p.r(A)p.r(A)p.d(T)p.d(T)}|RNA2{r(U)p.r(U)p.r(C)p.r(U)p.r(G)p.r(C)p.r(A)p.r(A)p.r(C)p.r(A)p.r(U)p.r(C)p.r(U)p.r(G)p.r(G)p.r(C)p.r(A)p.r(C)p.r(U)p.d(C)p.d(C)}$$$RNA1{StrandType:ss}|RNA2{StrandType:as}$”, the normalised inhibition (eCFP-eYFP dual reporter) was 115%.

Turning to “RNA1{r(G)p.r(C)p.r(A)p.r(G)p.r(A)p.r(C)p.r(A)p.r(U)p.r(C)p.r(A)p.r(U)p.r(A)p.r(A)p.r(U)p.r(U)p.r(G)p.r(G)p.r(C)p.r(U)p.d(T)p.d(T)}|RNA2{r(A)p.r(G)p.r(C)p.r(C)p.r(A)p.r(A)p.r(U)p.r(U)p.r(A)p.r(U)p.r(G)p.r(A)p.r(U)p.r(G)p.r(U)p.r(C)p.r(U)p.r(G)p.r(C)p.d(A)p.d(G)}$$$RNA1{StrandType:ss}|RNA2{StrandType:as}$”, the normalised inhibition (eCFP-eYFP dual reporter) came to 95.9%.

Take “RNA1{r(G)p.r(G)p.r(A)p.r(A)p.r(A)p.r(U)p.r(U)p.r(U)p.r(U)p.r(A)p.r(C)p.r(C)p.r(U)p.r(U)p.r(C)p.r(A)p.r(C)p.r(G)p.r(A)p.d(T)p.d(T)}|RNA2{r(U)p.r(C)p.r(G)p.r(U)p.r(G)p.r(A)p.r(A)p.r(G)p.r(G)p.r(U)p.r(A)p.r(A)p.r(A)p.r(A)p.r(U)p.r(U)p.r(U)p.r(C)p.r(C)p.d(T)p.d(A)}$$$RNA1{StrandType:ss}|RNA2{StrandType:as}$”: the normalised inhibition (eCFP-eYFP dual reporter) amounted to 127%.

Regarding “RNA1{r(U)p.r(U)p.r(C)p.r(G)p.r(C)p.r(A)p.r(A)p.r(G)p.r(G)p.r(G)p.r(G)p.r(A)p.r(G)p.r(A)p.r(U)p.r(C)p.r(A)p.r(C)p.r(G)p.d(T)p.d(T)}|RNA2{r(C)p.r(G)p.r(U)p.r(G)p.r(A)p.r(U)p.r(C)p.r(U)p.r(C)p.r(C)p.r(C)p.r(C)p.r(U)p.r(U)p.r(G)p.r(C)p.r(G)p.r(A)p.r(A)p.d(G)p.d(C)}$$$RNA1{StrandType:ss}|RNA2{StrandType:as}$”, the normalised inhibition (eCFP-eYFP dual reporter) came to 26.8%.

Regarding “RNA1{r(A)p.r(A)p.r(A)p.r(C)p.r(U)p.r(G)p.r(A)p.r(G)p.r(G)p.r(G)p.r(A)p.r(A)p.r(A)p.r(U)p.r(G)p.r(C)p.r(A)p.r(G)p.r(A)p.d(T)p.d(T)}|RNA2{r(U)p.r(C)p.r(U)p.r(G)p.r(C)p.r(A)p.r(U)p.r(U)p.r(U)p.r(C)p.r(C)p.r(C)p.r(U)p.r(C)p.r(A)p.r(G)p.r(U)p.r(U)p.r(U)p.d(G)p.d(T)}$$$RNA1{StrandType:ss}|RNA2{StrandType:as}$”, the normalised inhibition (eCFP-eYFP dual reporter) is 116%.

For the substance “RNA1{r(A)p.r(G)p.r(U)p.r(C)p.r(U)p.r(U)p.r(A)p.r(C)p.r(A)p.r(A)p.r(A)p.r(G)p.r(G)p.r(A)p.r(C)p.r(G)p.r(A)p.r(C)p.r(A)p.d(T)p.d(T)}|RNA2{r(U)p.r(G)p.r(U)p.r(C)p.r(G)p.r(U)p.r(C)p.r(C)p.r(U)p.r(U)p.r(U)p.r(G)p.r(U)p.r(A)p.r(A)p.r(G)p.r(A)p.r(C)p.r(U)p.d(G)p.d(A)}$$$RNA1{StrandType:ss}|RNA2{StrandType:as}$”, the normalised inhibition (eCFP-eYFP dual reporter) was found to be 98.7%.

On to “RNA1{r(A)p.r(G)p.r(G)p.r(C)p.r(G)p.r(C)p.r(A)p.r(G)p.r(A)p.r(A)p.r(U)p.r(U)p.r(A)p.r(U)p.r(C)p.r(U)p.r(U)p.r(A)p.r(G)p.d(T)p.d(T)}|RNA2{r(C)p.r(U)p.r(A)p.r(A)p.r(G)p.r(A)p.r(U)p.r(A)p.r(A)p.r(U)p.r(U)p.r(C)p.r(U)p.r(G)p.r(C)p.r(G)p.r(C)p.r(C)p.r(U)p.d(G)p.d(T)}$$$RNA1{StrandType:ss}|RNA2{StrandType:as}$”, for which the normalised inhibition (eCFP-eYFP dual reporter) amounted to 66%.

As for “RNA1{r(A)p.r(G)p.r(A)p.r(A)p.r(G)p.r(U)p.r(G)p.r(A)p.r(C)p.r(C)p.r(G)p.r(C)p.r(A)p.r(C)p.r(U)p.r(U)p.r(C)p.r(A)p.r(G)p.d(T)p.d(T)}|RNA2{r(C)p.r(U)p.r(G)p.r(A)p.r(A)p.r(G)p.r(U)p.r(G)p.r(C)p.r(G)p.r(G)p.r(U)p.r(C)p.r(A)p.r(C)p.r(U)p.r(U)p.r(C)p.r(U)p.d(C)p.d(C)}$$$RNA1{StrandType:ss}|RNA2{StrandType:as}$”, the normalised inhibition (eCFP-eYFP dual reporter) turned out to be 32.9%.

In the case of “RNA1{r(G)p.r(A)p.r(U)p.r(G)p.r(U)p.r(U)p.r(G)p.r(C)p.r(A)p.r(G)p.r(A)p.r(A)p.r(U)p.r(U)p.r(C)p.r(U)p.r(C)p.r(A)p.r(C)p.d(T)p.d(T)}|RNA2{r(G)p.r(U)p.r(G)p.r(A)p.r(G)p.r(A)p.r(A)p.r(U)p.r(U)p.r(C)p.r(U)p.r(G)p.r(C)p.r(A)p.r(A)p.r(C)p.r(A)p.r(U)p.r(C)p.d(T)p.d(G)}$$$RNA1{StrandType:ss}|RNA2{StrandType:as}$”, the normalised inhibition (eCFP-eYFP dual reporter) amounted to 119%.

For the substance “RNA1{r(C)p.r(C)p.r(C)p.r(U)p.r(A)p.r(C)p.r(C)p.r(U)p.r(A)p.r(U)p.r(C)p.r(A)p.r(A)p.r(G)p.r(G)p.r(A)p.r(G)p.r(A)p.r(U)p.d(T)p.d(T)}|RNA2{r(A)p.r(U)p.r(C)p.r(U)p.r(C)p.r(C)p.r(U)p.r(U)p.r(G)p.r(A)p.r(U)p.r(A)p.r(G)p.r(G)p.r(U)p.r(A)p.r(G)p.r(G)p.r(G)p.d(T)p.d(A)}$$$RNA1{StrandType:ss}|RNA2{StrandType:as}$”, the normalised inhibition (eCFP-eYFP dual reporter) stood at 102%.

Consider “RNA1{r(U)p.r(G)p.r(U)p.r(U)p.r(U)p.r(G)p.r(U)p.r(U)p.r(G)p.r(C)p.r(C)p.r(A)p.r(C)p.r(U)p.r(C)p.r(A)p.r(U)p.r(G)p.r(A)p.d(T)p.d(T)}|RNA2{r(U)p.r(C)p.r(A)p.r(U)p.r(G)p.r(A)p.r(G)p.r(U)p.r(G)p.r(G)p.r(C)p.r(A)p.r(A)p.r(C)p.r(A)p.r(A)p.r(A)p.r(C)p.r(A)p.d(G)p.d(G)}$$$RNA1{StrandType:ss}|RNA2{StrandType:as}$”, for which the normalised inhibition (eCFP-eYFP dual reporter) came out at 105%.

In the case of “RNA1{r(G)p.r(G)p.r(C)p.r(G)p.r(C)p.r(A)p.r(G)p.r(A)p.r(A)p.r(U)p.r(U)p.r(A)p.r(U)p.r(C)p.r(U)p.r(U)p.r(A)p.r(G)p.r(G)p.d(T)p.d(T)}|RNA2{r(C)p.r(C)p.r(U)p.r(A)p.r(A)p.r(G)p.r(A)p.r(U)p.r(A)p.r(A)p.r(U)p.r(U)p.r(C)p.r(U)p.r(G)p.r(C)p.r(G)p.r(C)p.r(C)p.d(T)p.d(G)}$$$RNA1{StrandType:ss}|RNA2{StrandType:as}$”, the normalised inhibition (eCFP-eYFP dual reporter) came to 134%.

Take “RNA1{r(A)p.r(C)p.r(U)p.r(U)p.r(C)p.r(A)p.r(G)p.r(U)p.r(C)p.r(U)p.r(U)p.r(A)p.r(C)p.r(A)p.r(A)p.r(A)p.r(G)p.r(G)p.r(A)p.d(T)p.d(T)}|RNA2{r(U)p.r(C)p.r(C)p.r(U)p.r(U)p.r(U)p.r(G)p.r(U)p.r(A)p.r(A)p.r(G)p.r(A)p.r(C)p.r(U)p.r(G)p.r(A)p.r(A)p.r(G)p.r(U)p.d(C)p.d(T)}$$$RNA1{StrandType:ss}|RNA2{StrandType:as}$”: the normalised inhibition (eCFP-eYFP dual reporter) came out at 112%.

Take “RNA1{r(U)p.r(G)p.r(C)p.r(C)p.r(U)p.r(U)p.r(U)p.r(G)p.r(C)p.r(A)p.r(C)p.r(C)p.r(G)p.r(G)p.r(G)p.r(G)p.r(C)p.r(C)p.r(A)p.d(T)p.d(T)}|RNA2{r(U)p.r(G)p.r(G)p.r(C)p.r(C)p.r(C)p.r(C)p.r(G)p.r(G)p.r(U)p.r(G)p.r(C)p.r(A)p.r(A)p.r(A)p.r(G)p.r(G)p.r(C)p.r(A)p.d(T)p.d(G)}$$$RNA1{StrandType:ss}|RNA2{StrandType:as}$”: the normalised inhibition (eCFP-eYFP dual reporter) is 59.1%.
